# From patent US11834450B2, “Compounds having ((3-nitrophenyl)sulfonyl)acetamide as BCL-2 inhibitors” (Eil Therapeutics, Inc., priority 2021, dated 2023)
# How the values were obtained:
# BCL-2 = biological target: T1, BCL-2 (Homo sapiens, UniProt P10415); experiment: BCL-2 TR-FRET Assay (primary PPI inhibition); format: binding; details: 60 min incubation; read-out: BCL2 (IC50 code, BCL-2 TR-FRET)
# T1 construct: purchased BPS Bioscience #50222
# [1] = Cell viability assay HEK293 (CellTiter-Glo); format: cell-based; details: human, HEK293 cells, read-out: HEK293 (CC50 code)
# Summary of the method: (§1)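 Cells were seeded at 2000/well (HEK293, in DMEM, pre-incubated a day) or 4000/well (other lines, in RPMI-1640). Serially diluted compound was added and plates incubated 3 days at 37 °C, with viability read by CellTiter-Glo luminescence.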
# RS4-11 cells = experiment: Cell viability assay RS4-11 (CellTiter-Glo); format: cell-based; details: Homo sapiens, 72 h; RS4-11 cells, 3 days, CellTiter-Glo; read-out: RS4-11 (CC50 code)
# Summary of the method: as §1
# [2] = tested on: caspase-3 and -7 activities in RS4-11 cells; experiment: Cas-3/7 activation (Caspase-Glo 3/7) in RS4-11 cells; format: cell-based; details: Homo sapiens, 3.5 h at 37° C. and 30 min at r.t., read-out: Cas-3/7 (EC50 code)
# Protocol: Assay Principle: The Caspase-Glo 3/7 Assay is homogeneous, luminescent assay that measures caspase-3 and -7 activities. The assay provides a luminogenic caspase-3/7 substrate, which contains the tetrapeptide sequence DEVD, in a reagent optimized for caspase activity.
# Assay Procedure: Incubate RS4-11 cells with varying concentrations of test compounds for 3.5 h in a humidified incubator at 37° C. and 5% CO2 and 30 min at r.t. Add 15 μl Caspase-Glo reagent to each well and incubate the plate for 30 min at r.t. Read on ClarioStar Plus instrument.
# Materials: Promega Caspase-Glo (Promega, #8212); Frozen RS4-11 cells; 384-well white plate (Corning, #3570).
# Instrumentation: ClarioStar Plus; Biomek FX for liquid handling (Beckman Coulter).
# MOLT-4 cells = experiment: Cell viability assay MOLT-4 (CellTiter-Glo); format: cell-based; details: Homo sapiens, 72 h; MOLT-4 cells, 3 days, CellTiter-Glo; read-out: MOLT-4 (CC50 code)
# Summary of the method: as §1
# BCL-XL = biological target: T2, BCL-XL (Homo sapiens, UniProt Q07817); experiment: BCL-XL TR-FRET Assay (primary PPI inhibition); format: binding; details: 60 min incubation; read-out: BCLxL (IC50 code, BCL-XL TR-FRET)
# T2 construct: purchased BPS Bioscience #50223
# T2 sequence (Q07817 whole entry): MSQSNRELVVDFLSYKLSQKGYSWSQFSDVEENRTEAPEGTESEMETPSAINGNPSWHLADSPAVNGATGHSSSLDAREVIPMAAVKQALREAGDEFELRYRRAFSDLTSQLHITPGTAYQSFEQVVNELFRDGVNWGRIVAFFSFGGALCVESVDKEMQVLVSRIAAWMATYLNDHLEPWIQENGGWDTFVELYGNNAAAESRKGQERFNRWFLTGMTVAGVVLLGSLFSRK
# Summary of the method: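 TR-FRET readout (ex 340 nm; em 620/665 nm; 60 μs delay, 500 μs integration) after a 60 min incubation. Mix: compound, 10.5 ng BCL-XL, BCL-XL peptide ligand at 1:80, plus anti-His Tb donor and dye acceptor each at 1:100.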
# T1 sequence (P10415 whole entry): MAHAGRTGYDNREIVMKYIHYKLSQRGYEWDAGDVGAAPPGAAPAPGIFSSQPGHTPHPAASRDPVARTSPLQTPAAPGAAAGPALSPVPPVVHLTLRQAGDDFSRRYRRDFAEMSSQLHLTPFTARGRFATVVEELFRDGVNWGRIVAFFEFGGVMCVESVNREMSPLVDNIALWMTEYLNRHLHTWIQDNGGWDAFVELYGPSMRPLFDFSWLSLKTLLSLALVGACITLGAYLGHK
SMILES,IC50 (BCL-2) [nM],CC50 at 3 days [1] [nM],CC50 (RS4-11 cells) [nM],EC50 [2] [nM],CC50 (MOLT-4 cells) [nM],IC50 (BCL-XL) [nM]
"O=C(NS(=O)(=O)c1ccc(NCC2CCOCC2)c([N+](=O)[O-])c1)c1ccc(N2CCN(CC3Cc4ccc(Cl)cc4CN3C(=O)C3CC3)CC2)cc1Oc1cnc2[nH]ccc2c1 (stereo not drawn) [Compound 20, 4-[4-[[7-chloro-2-(cyclopropanecarbonyl)-3,4-dihydro-1H-isoquinolin-3-yl]methyl]piperazin-1-yl]-N-[3-nitro-4-(tetrahydropyran-4-ylmethylamino)phenyl]sulfonyl-2-(1H-pyrrolo[2,3-b]pyridin-5-yloxy)benzamide]",> 50,> 25000,> 200,> 250,2000 to 10000,> 4000
"O=C(NS(=O)(=O)c1ccc(NCC2CCOCC2)c([N+](=O)[O-])c1)c1ccc(N2CCN(CC3Cc4cc(Cl)ccc4CN3C(=O)C3CC3)CC2)cc1Oc1cnc2[nH]ccc2c1 (stereo not drawn) [Compound 22, 4-[4-[[6-chloro-2-(cyclopropanecarbonyl)-3,4-dihydro-1H-isoquinolin-3-yl]methyl]piperazin-1-yl]-N-[3-nitro-4-(tetrahydropyran-4-ylmethylamino)phenyl]sulfonyl-2-(1H-pyrrolo[2,3-b]pyridin-5-yloxy)benzamide]",> 50,> 25000,> 200,> 250,2000 to 10000,> 4000
"CC1(O)CC[C@H](CN2CCN(c3ccc(C(=O)NS(=O)(=O)c4ccc(NCC5CCOCC5)c([N+](=O)[O-])c4)c(Oc4cnc5[nH]ccc5c4)c3)CC2)[C@@H](c2ccc(Cl)cc2)C1 (stereo partly drawn) [Compound 28, 4-[4-[[(1S,2S)-2-(4-chlorophenyl)-4-hydroxy-4-methyl-cyclohexyl]methyl]piperazin-1-yl]-N-[3-nitro-4-(tetrahydropyran-4-ylmethylamino)phenyl]sulfonyl-2-(1H-pyrrolo[2,3-b]pyridin-5-yloxy)benzamide]",< 5,> 25000,100 to 200,100 to 250,2000 to 10000,≤ 2000
"O=C(NS(=O)(=O)c1ccc(NCC2CCOCC2)c([N+](=O)[O-])c1)c1ccc(N2CCN(C[C@H]3Cc4ccccc4CN3C(=O)C3CC3)CC2)cc1Oc1cnc2[nH]ccc2c1 [Compound 33, 4-[4-[[(3R)-2-(cyclopropanecarbonyl)-3,4-dihydro-1H-isoquinolin-3-yl]methyl]piperazin-1-yl]-N-[3-nitro-4-(tetrahydropyran-4-ylmethylamino)phenyl]sulfonyl-2-(1H-pyrrolo[2,3-b]pyridin-5-yloxy)benzamide]",10 to 50,> 25000,> 200,> 250,2000 to 10000,> 4000
"O=C(NS(=O)(=O)c1ccc(NCC2CCOCC2)c([N+](=O)[O-])c1)c1ccc(N2CCN(C[C@@H]3Cc4ccccc4CN3C(=O)c3ccc(Cl)s3)CC2)cc1Oc1cnc2[nH]ccc2c1 [Compound 35, 4-[4-[[(3S)-2-(5-chlorothiophene-2-carbonyl)-3,4-dihydro-1H-isoquinolin-3-yl]methyl]piperazin-1-yl]-N-[3-nitro-4-(tetrahydropyran-4-ylmethylamino)phenyl]sulfonyl-2-(1H-pyrrolo[2,3-b]pyridin-5-yloxy)benzamide]",> 50,> 25000,> 200,> 250,2000 to 10000,> 4000
"O=C(NS(=O)(=O)c1ccc(NCC2CCOCC2)c([N+](=O)[O-])c1)c1ccc(N2CCN(C[C@@H]3Cc4ccccc4CN3C(=O)c3ccsc3)CC2)cc1Oc1cnc2[nH]ccc2c1 [Compound 36, N-[3-nitro-4-(tetrahydropyran-4-ylmethylamino)phenyl]sulfonyl-2 (1H-pyrrolo[2,3-b]pyridin-5-yloxy)-4-[4-[[(3S)-2-(thiophene-3 carbonyl)-3,4-dihydro-1H-isoquinolin-3-yl]methyl]piperazin 1-yl]benzamide]",> 50,10000 to 25000,> 200,> 250,2000 to 10000,> 4000
